# Laboratory results published in ChEMBL document CHEMBL4118281, “Azoalkyl ether imidazo[2,1-b]benzothiazoles as potentially antimicrobial agents with novel structural skeleton” (2018).
# The source made the active and inactive calls. No cut-off for these calls is given here.
# Columns and labels:
# Cyberlindnera jadinii = assay: Antifungal activity against Candida utilis after 24 hrs by two fold serial dilution based spectrophotometric analysis; format: functional; details: Williopsis jadinii
# Saccharomyces cerevisiae = assay: Antifungal activity against Beer yeast after 24 hrs by two fold serial dilution based spectrophotometric analysis; format: functional
# Salmonella typhi = assay: Antibacterial activity against Bacillus typhi after 24 hrs by micro broth dilution method; format: functional, Salmonella enterica subsp. enterica serovar Typhi; details: Salmonella enterica
# Bacillus = assay: Antibacterial activity against Bacillus proteus ATCC 13315 after 24 hrs by micro broth dilution method; format: functional; details: ATCC 13315, 24 h
# Aspergillus flavus [1] = assay: Antifungal activity against Aspergillus flavus after 24 hrs by two fold serial dilution based spectrophotometric analysis; format: functional
# Pseudomonas aeruginosa = assay: Antibacterial activity against Pseudomonas aeruginosa after 24 hrs by micro broth dilution method; format: functional
# Aspergillus flavus [2] = assay: Potency index, ratio of fluconazole MIC to compound MIC for Aspergillus flavus; format: functional
# Staphylococcus aureus [3] = assay: Antibacterial activity against Staphylococcus aureus ATCC 25923 after 24 hrs by micro broth dilution method; format: functional; details: ATCC 25923, 24 h
# Candida albicans = assay: Antifungal activity against Candida albicans after 24 hrs by two fold serial dilution based spectrophotometric analysis; format: functional
# Shigella dysenteriae [4] = assay: Potency index, ratio of norfloxacin MIC to compound MIC for Shigella dysenteriae; format: functional
# Escherichia coli [5] = assay: Antibacterial activity against Escherichia coli DH52 after 24 hrs by micro broth dilution method; format: functional; details: DH52, 24 h
# Shigella dysenteriae [6] = assay: Potency index, ratio of chloromycin MIC to compound MIC for Shigella dysenteriae; format: functional
# Shigella dysenteriae [7] = assay: Antibacterial activity against Shigella dysenteriae after 24 hrs by micro broth dilution method; format: functional
# Micrococcus luteus = assay: Antibacterial activity against Micrococcus luteus ATCC 4698 after 24 hrs by micro broth dilution method; format: functional; details: NCTC 2665, 24 h
# Staphylococcus aureus [8] = assay: Antibacterial activity against methicillin-resistant Staphylococcus aureus N315 after 24 hrs by micro broth dilution method; format: functional; details: N315, 24 h
# Escherichia coli [9] = assay: Antibacterial activity against Escherichia coli JM109 after 24 hrs by micro broth dilution method; format: functional; details: JM109, 24 h
# Bacillus subtilis = assay: Antibacterial activity against Bacillus subtilis after 24 hrs by micro broth dilution method; format: functional
# Pichia norvegensis = assay: Antifungal activity against Candida mycoderma after 24 hrs by two fold serial dilution based spectrophotometric analysis; format: functional
# Staphylococcus aureus [10] = assay: Antibacterial activity against methicillin-resistant Staphylococcus aureus N315 after 4 passages; format: functional
# Staphylococcus aureus [11] = assay: Antibacterial activity against methicillin-resistant Staphylococcus aureus N315 after 1 passage; format: functional
# Staphylococcus aureus [12] = assay: Antibacterial activity against methicillin-resistant Staphylococcus aureus N315 after 6 passages; format: functional
# Staphylococcus aureus [13] = assay: Antibacterial activity against methicillin-resistant Staphylococcus aureus N315 after 3 passages; format: functional
# Staphylococcus aureus [14] = assay: Antibacterial activity against methicillin-resistant Staphylococcus aureus N315 after 8 passages; format: functional
# Staphylococcus aureus [15] = assay: Antibacterial activity against methicillin-resistant Staphylococcus aureus N315 after 2 passages; format: functional
# Staphylococcus aureus [16] = assay: Antibacterial activity against methicillin-resistant Staphylococcus aureus N315 after 7 passages; format: functional
# Staphylococcus aureus [17] = assay: Antibacterial activity against methicillin-resistant Staphylococcus aureus N315 after 5 passages; format: functional
# Calf thymus DNA [18] = assay: Binding affinity to calf thymus DNA assessed as hypsochromic shift by UV-Visible spectroscopic method; format: nucleic-acid assay; details: Bos taurus
# Staphylococcus aureus [19] = assay: Bactericidal activity against methicillin-resistant Staphylococcus aureus N315 assessed as reduction in bacterial load at 4 times MIC after 240 mins by time kill assay (reference value: 10.42 log10CFU/ml); format: functional
# Staphylococcus aureus [20] = assay: Bactericidal activity against methicillin-resistant Staphylococcus aureus N315 assessed as reduction in bacterial load at 4 times MIC after 140 mins by time kill assay (reference value: 6.413 log10CFU/ml); format: functional
# Calf thymus DNA [21] = assay: Binding affinity to calf thymus DNA assessed as DNA intercalation by UV-Visible spectroscopic method; format: nucleic-acid assay; details: Bos taurus
# Staphylococcus aureus [22] = assay: Bactericidal activity against methicillin-resistant Staphylococcus aureus N315 assessed as reduction in bacterial load at 4 times MIC up to 1 hr by time kill assay; format: functional
# Staphylococcus aureus [23] = assay: Bactericidal activity against methicillin-resistant Staphylococcus aureus N315 assessed as reduction in bacterial load at 4 times MIC after 160 mins by time kill assay (reference value: 7.47 log10CFU/ml); format: functional
# Staphylococcus aureus [24] = assay: Antibacterial activity against methicillin-resistant Staphylococcus aureus N315 after 16 passages; format: functional, organism-based
# Calf thymus DNA [25] = assay: Inhibition of neutral red binding to calf thymus DNA by UV-Visible spectroscopic method; format: nucleic-acid assay; details: Bos taurus
# Staphylococcus aureus [26] = assay: Bactericidal activity against methicillin-resistant Staphylococcus aureus N315 assessed as reduction in bacterial load at 4 times MIC after 120 mins by time kill assay (reference value: 5.77 log10CFU/ml); format: functional
# Staphylococcus aureus [27] = assay: Potency index, ratio of norfloxacin MIC to compound MIC for methicillin-resistant Staphylococcus aureus N315; format: functional
# Staphylococcus aureus [28] = assay: Bactericidal activity against methicillin-resistant Staphylococcus aureus N315 assessed as reduction in bacterial load at 4 times MIC after 220 mins by time kill assay (reference value: 10.39 log10CFU/ml); format: functional
# Staphylococcus aureus [29] = assay: Potency index, ratio of chloromycin MIC to compound MIC for methicillin-resistant Staphylococcus aureus N315; format: functional
# Staphylococcus aureus [30] = assay: Bactericidal activity against methicillin-resistant Staphylococcus aureus N315 assessed as reduction in bacterial load at 4 times MIC after 180 mins by time kill assay (reference value: 8.63 log10CFU/ml); format: functional
# Calf thymus DNA [31] = assay: Binding affinity to calf thymus DNA assessed as hypochromic shift by UV-Visible spectroscopic method; format: nucleic-acid assay; details: Bos taurus
# Staphylococcus aureus [32] = assay: Bactericidal activity against methicillin-resistant Staphylococcus aureus N315 assessed as reduction in bacterial load at 4 times MIC after 200 mins by time kill assay (reference value: 9.84 log10CFU/ml); format: functional
# Staphylococcus aureus [33] = assay: Bactericidal activity against methicillin-resistant Staphylococcus aureus N315 assessed as reduction in bacterial load at 4 times MIC after 270 mins by time kill assay (reference value: 10.26 log10CFU/ml); format: functional
Compound,MIC (Cyberlindnera jadinii),MIC (Saccharomyces cerevisiae),MIC (Salmonella typhi),MIC (Bacillus),MIC (Aspergillus flavus [1]),MIC (Pseudomonas aeruginosa),MIC (Staphylococcus aureus [3]),MIC (Candida albicans),MIC (Escherichia coli [5]),MIC (Shigella dysenteriae [7]),MIC (Micrococcus luteus),MIC (Staphylococcus aureus [8]),MIC (Escherichia coli [9]),MIC (Bacillus subtilis),MIC (Pichia norvegensis),MIC (Staphylococcus aureus [10]),MIC (Staphylococcus aureus [11]),MIC (Staphylococcus aureus [12]),MIC (Staphylococcus aureus [13]),MIC (Staphylococcus aureus [14]),also measured
BrCCCOCc1c(-c2ccccc2)nc2sc3ccccc3n12,64 µg/mL,8 µg/mL,16 µg/mL,16 µg/mL,4 µg/mL,8 µg/mL,32 µg/mL,4 µg/mL,16 µg/mL,4 µg/mL,32 µg/mL,8 µg/mL,32 µg/mL,4 µg/mL,32 µg/mL,,,,,,Ratio (Aspergillus flavus [2]): 64; Ratio (Shigella dysenteriae [4]): 4; Ratio (Shigella dysenteriae [6]): 4
O=C(N[C@H](CO)[C@H](O)c1ccc([N+](=O)[O-])cc1)C(Cl)Cl [CHLORAMPHENICOL],,,32 µg/mL,32 µg/mL,,32 µg/mL,16 µg/mL,,32 µg/mL,16 µg/mL,8 µg/mL,16 µg/mL,32 µg/mL,32 µg/mL,,33 µM,14 µM,33 µM,14 µM,67 µM,MIC (Staphylococcus aureus [15]): 14 µM; MIC (Staphylococcus aureus [16]): 67 µM; MIC (Staphylococcus aureus [17]): 33 µM
Cc1ncc([N+](=O)[O-])n1CCCOCc1c(-c2ccccc2)nc2sc3ccccc3n12,32 µg/mL,256 µg/mL,1 µg/mL,8 µg/mL,8 µg/mL,2 µg/mL,8 µg/mL,2 µg/mL,4 µg/mL,4 µg/mL,32 µg/mL,2 µg/mL,4 µg/mL,4 µg/mL,16 µg/mL,16 µM,13 µM,15 µM,14 µM,15 µM,Activity (Calf thymus DNA [18]): Dose-dependent effect; Activity (Staphylococcus aureus [19]): 1.6 log10CFU/ml; Activity (Staphylococcus aureus [20]): 3.29 log10CFU/ml; Activity (Calf thymus DNA [21]): Active; Activity (Staphylococcus aureus [22]): >3 log10CFU/ml; Activity (Staphylococcus aureus [23]): 1.98 log10CFU/ml; Activity (Staphylococcus aureus [24]): Active; inhibition (Calf thymus DNA [25]): Active; Activity (Staphylococcus aureus [26]): 5.77 log10CFU/ml; Ratio (Staphylococcus aureus [27]): 4 - 8; Activity (Staphylococcus aureus [28]): 1.66 log10CFU/ml; Ratio (Staphylococcus aureus [29]): 4 - 8; Activity (Staphylococcus aureus [30]): 1.81 log10CFU/ml; Activity (Calf thymus DNA [31]): Active; MIC (Staphylococcus aureus [15]): 13 µM; MIC (Staphylococcus aureus [16]): 15 µM; Activity (Staphylococcus aureus [32]): 1.74 log10CFU/ml; MIC (Staphylococcus aureus [17]): 15 µM; Activity (Staphylococcus aureus [33]): 1.81 log10CFU/ml
CCOc1ccc2c(c1)sc1nc(-c3ccccc3)c(COCCCCCn3cnc([N+](=O)[O-])c3)n12,128 µg/mL,128 µg/mL,256 µg/mL,512 µg/mL,256 µg/mL,512 µg/mL,128 µg/mL,128 µg/mL,128 µg/mL,16 µg/mL,512 µg/mL,> 512 µg/mL,> 512 µg/mL,256 µg/mL,256 µg/mL,,,,,,
c1ccc(-c2nc3sc4ccccc4n3c2COCCCCCCCCCCn2cncn2)cc1,> 512 µg/mL,16 µg/mL,16 µg/mL,128 µg/mL,16 µg/mL,32 µg/mL,32 µg/mL,16 µg/mL,32 µg/mL,16 µg/mL,64 µg/mL,16 µg/mL,64 µg/mL,16 µg/mL,16 µg/mL,,,,,,
